Key:
[1] = system: rice blast; experiment: microbe, parasite or virus in culture; assay type: cell-based; conditions: Pyricularia oryzae
[2] = system: Diamond back moth; experiment: insecticidal activity against diamond back moth, airbrush spray; assay type: in vivo; conditions: mortality after 72 hrs; for control (test results against diamond back moth): 600 ppm
Procedure, shortened: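 Airbrush leaf-disc spray test: both faces of 2 cm cabbage discs received 0.5 ml of test solution at 0.7 kg/cm^2. Solutions were made in acetone:methanol (1:1) and brought to concentration with 0.1% Tween 80 in water. Ten second-instar larvae per disc, triplicates, were held at 25° C and 60˜70% R.H., with mortality recorded at 72 hrs.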

[3] = system: Green peach aphids (Myzus Persicae Sulzer); experiment: bioactivity test against green peach aphid, airbrush foliar spray; assay type: in vivo; conditions: for Insecticidal activity against peach aphid (%): contrastive test
Procedure, shortened: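 Aphids (15-30 per cabbage leaf disc) on moist filter paper were airbrush-sprayed at 10 psi, 0.5 mL, with compound from acetone:methanol (1:1) diluted in water with 0.1% tween 80. Held at 25±1 C, 60±5% RH; survivors counted after 48 hrs to give death rates.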

[4] = system: carmine spider mite; experiment: bioactivity test against carmine spider mite, airbrush spray; assay type: in vivo; conditions: for control against carmine spider mite: mortality after 72 hrs
Procedure, shortened: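 Broadbean seedlings infested with adult mites were sprayed with compound (acetone/methanol stock diluted in 0.1% Tween 80 water) by airbrush at 0.7 kg/cm^2, 0.5 ml. Three replicates were run. Mortality was scored after 72 hrs.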

[5] = system: corn rust; experiment: protectant activity in vivo against corn rust; conditions: for pest or weed control at 0.4 µg/mL: read-out: control effect against corn rust (%), 0.4 mg/L; for pest or weed control at 0.4 µg/mL / pest or weed control at 1.6 µg/mL / pest or weed control at 6.25 µg/mL / pest or weed control at 25 µg/mL / pest or weed control at 100 µg/mL / pest or weed control at 400 µg/mL: protectant activity; for pest or weed control at 1.6 µg/mL: read-out: control effect against corn rust (%), 1.6 mg/L; for pest or weed control at 6.25 µg/mL: read-out: control effect against corn rust (%), 6.25 mg/L; for pest or weed control at 25 µg/mL: read-out: control effect against corn rust (%), 25 mg/L; for pest or weed control at 100 µg/mL: read-out: control effect against corn rust (%), 100 mg/L; for pest or weed control at 400 µg/mL: read-out: control effect against corn rust (%), 400 mg/L; for pest or weed control at 25 ppm: read-out: protectant activity against corn rust in vivo, 25 ppm
[6] = system: wheat powdery mildew; experiment: protectant activity in vivo against wheat powdery mildew; conditions: for pest or weed control at 1.6 µg/mL: read-out: control effect against wheat powdery mildew (%), 1.6 mg/L
[7] = system: cucumber downy mildew; experiment: protectant activity in vivo against cucumber downy mildew; conditions: for pest or weed control at 50 ppm: read-out: protectant activity against cucumber downy mildew in vivo, 50 ppm
[8] = 10 ppm, death rate after 48 hrs
[9] = Triticum aestivum, 168 h, protectant activity

## Cc1ncnc(NCCc2ccc(Oc3ccc(C(F)(F)F)cn3)cc2)c1Cl [Compound I-22]
[1]; read-out: inhibition rate against rice blast, 8.3 ppm, in vitro
  inhibition at 8.3 ppm: 80 to 99%
[2]
  control (test results against diamond back moth): 100%
[3]; 1.25 mg/L
  Insecticidal activity against peach aphid (%): 100%
[3]; 2.5 mg/L
  Insecticidal activity against peach aphid (%): 100%
[3]; 5 mg/L
  Insecticidal activity against peach aphid (%): 100%
[3]; 10 mg/L
  Insecticidal activity against peach aphid (%): 100%
[3]; 100 mg/L
  Insecticidal activity against peach aphid (%): 100%
[3]; 600 mg/L
  Insecticidal activity against peach aphid (%): 100%
[3]; [8]
  control (test results against green peach aphid): 100%
[3]; Myzus persicae, foliar, 48 h, 100 ppm, death rate after 48 hrs
  pest or weed control at 100 ppm: 100%
[3]; Myzus persicae, foliar, 48 h, 600 ppm, death rate after 48 hrs
  pest or weed control at 600 ppm: 100%
[4]; 5 mg/L
  Insecticidal activity against carmine spider mite (% ): 59%
[4]; 10 mg/L, contrastive test
  Insecticidal activity against carmine spider mite (% ): 74%
[4]; 100 mg/L, contrastive test
  Insecticidal activity against carmine spider mite (% ): 100%
[4]; 600 mg/L, contrastive test
  Insecticidal activity against carmine spider mite (% ): 100%
[4]; 100 ppm
  control against carmine spider mite: 100%
[4]; 600 ppm
  control against carmine spider mite: 100%
[5]; 6.25 ppm
  protectant activity against corn rust in vivo: 100%
[5]; 100 ppm
  protectant activity against corn rust in vivo: 100%
[5]; Zea mays, 168 h
  pest or weed control at 0.4 µg/mL: 20%
  pest or weed control at 1.6 µg/mL: 50%
  pest or weed control at 6.25 µg/mL: 100%
  pest or weed control at 25 µg/mL: 100%
  pest or weed control at 100 µg/mL: 100%
  pest or weed control at 400 µg/mL: 100%
  pest or weed control at 25 ppm: 100%
[5]; Zea mays, 168 h, read-out: protectant activity against corn rust in vivo, 400 ppm
  pest or weed control at 400 ppm: 100%
[6]; 6.25 ppm
  protectant activity against wheat powdery mildew in vivo: 100%
[6]; 100 ppm
  protectant activity against wheat powdery mildew in vivo: 100%
[6]; [9]
  pest or weed control at 1.6 µg/mL: 15%
[6]; Triticum aestivum, 168 h, read-out: control effect against wheat powdery mildew (%), 6.25 mg/L, protectant activity
  pest or weed control at 6.25 µg/mL: 100%
[6]; Triticum aestivum, 168 h, read-out: control effect against wheat powdery mildew (%), 25 mg/L, protectant activity
  pest or weed control at 25 µg/mL: 100%
[6]; Triticum aestivum, 168 h, read-out: control effect against wheat powdery mildew (%), 100 mg/L, protectant activity
  pest or weed control at 100 µg/mL: 100%
[6]; Triticum aestivum, 168 h, read-out: control effect against wheat powdery mildew (%), 400 mg/L, protectant activity
  pest or weed control at 400 µg/mL: 100%
[6]; Triticum aestivum, 168 h, read-out: protectant activity against wheat powdery mildew in vivo, 25 ppm
  pest or weed control at 25 ppm: 100%
[6]; Triticum aestivum, 168 h, read-out: protectant activity against wheat powdery mildew in vivo, 400 ppm
  pest or weed control at 400 ppm: 100%
[7]; 100 ppm
  protectant activity against cucumber downy mildew in vivo: 100%
[7]; Cucumis sativus, 168 h, read-out: control effect against cucumber downy mildew (%), 3.125 mg/L, protectant activity
  pest or weed control at 3.125 µg/mL: 85%
[7]; Cucumis sativus, 168 h, read-out: control effect against cucumber downy mildew (%), 6.25 mg/L, protectant activity
  pest or weed control at 6.25 µg/mL: 100%
[7]; Cucumis sativus, 168 h, read-out: control effect against cucumber downy mildew (%), 12.5 mg/L, protectant activity
  pest or weed control at 12.5 µg/mL: 100%
[7]; Cucumis sativus, 168 h, read-out: control effect against cucumber downy mildew (%), 25 mg/L, protectant activity
  pest or weed control at 25 µg/mL: 100%
[7]; Cucumis sativus, 168 h, read-out: control effect against cucumber downy mildew (%), 50 mg/L, protectant activity
  pest or weed control at 50 µg/mL: 100%
[7]; Cucumis sativus, 168 h, read-out: control effect against cucumber downy mildew (%), 100 mg/L, protectant activity
  pest or weed control at 100 µg/mL: 100%
[7]; Cucumis sativus, 168 h, read-out: control effect against cucumber downy mildew (%), 400 mg/L, protectant activity
  pest or weed control at 400 µg/mL: 100%
[7]; Cucumis sativus, 168 h, read-out: protectant activity against cucumber downy mildew in vivo, 6.25 ppm
  pest or weed control at 6.25 ppm: 100%
[7]; Cucumis sativus, 168 h, read-out: protectant activity against cucumber downy mildew in vivo, 12.5 ppm
  pest or weed control at 12.5 ppm: 100%
[7]; Cucumis sativus, 168 h, read-out: protectant activity against cucumber downy mildew in vivo, 25 ppm
  pest or weed control at 25 ppm: 100%
[7]; Cucumis sativus, 168 h
  pest or weed control at 50 ppm: 100%
[7]; Cucumis sativus, 168 h, read-out: protectant activity against cucumber downy mildew in vivo, 400 ppm
  pest or weed control at 400 ppm: 100%

## CCc1ncnc(NCCc2ccc(Oc3ccc(C(F)(F)F)cn3)cc2)c1Cl [Compound I-254]
[1]; read-out: inhibition rate against rice blast, 25 ppm, in vitro
  inhibition at 25 ppm: 80 to 99%
[2]
  control (test results against diamond back moth): 100%
[2]; 72 h, 100 ppm, read-out: control (test results against diamond back moth)
  pest or weed control at 100 ppm: 100%
[3]; 1.25 mg/L
  Insecticidal activity against peach aphid (%): 100%
[3]; 2.5 mg/L
  Insecticidal activity against peach aphid (%): 100%
[3]; 5 mg/L
  Insecticidal activity against peach aphid (%): 100%
[3]; 10 mg/L
  Insecticidal activity against peach aphid (%): 100%
[3]; 100 mg/L
  Insecticidal activity against peach aphid (%): 100%
[3]; 600 mg/L
  Insecticidal activity against peach aphid (%): 100%
[3]; 5 ppm, death rate after 48 hrs
  control (test results against green peach aphid): 100%
[3]; [8]
  control (test results against green peach aphid): 100%
[3]; 100 ppm, death rate after 48 hrs
  control (test results against green peach aphid): 100%
[3]; 600 ppm, death rate after 48 hrs
  control (test results against green peach aphid): 100%
[3]; Myzus persicae, foliar, 48 h, 2.5 ppm, death rate after 48 hrs
  pest or weed control at 2.5 ppm: 100%
[4]; 2.5 mg/L
  Insecticidal activity against carmine spider mite (% ): 79%
[4]; 5 mg/L
  Insecticidal activity against carmine spider mite (% ): 93%
[4]; 10 mg/L, contrastive test
  Insecticidal activity against carmine spider mite (% ): 97%
[4]; 100 mg/L, contrastive test
  Insecticidal activity against carmine spider mite (% ): 100%
[4]; 600 mg/L, contrastive test
  Insecticidal activity against carmine spider mite (% ): 100%
[4]; 10 ppm
  control against carmine spider mite: 100%
[4]; 100 ppm
  control against carmine spider mite: 100%
[4]; 600 ppm
  control against carmine spider mite: 100%
[5]; 100 ppm
  protectant activity against corn rust in vivo: 100%
[5]; 400 ppm
  protectant activity against corn rust in vivo: 100%
[5]; Zea mays, 168 h
  pest or weed control at 0.4 µg/mL: 40%
  pest or weed control at 1.6 µg/mL: 95%
  pest or weed control at 6.25 µg/mL: 100%
  pest or weed control at 25 µg/mL: 100%
  pest or weed control at 100 µg/mL: 100%
  pest or weed control at 400 µg/mL: 100%
  pest or weed control at 25 ppm: 100%
[5]; Zea mays, 168 h, read-out: protectant activity against corn rust in vivo, 6.25 ppm
  pest or weed control at 6.25 ppm: 100%
[6]; 6.25 mg/L, protectant activity
  control effect against wheat powdery mildew (%): 100%
[6]; 25 mg/L, protectant activity
  control effect against wheat powdery mildew (%): 100%
[6]; 100 mg/L, protectant activity
  control effect against wheat powdery mildew (%): 100%
[6]; 400 mg/L, protectant activity
  control effect against wheat powdery mildew (%): 100%
[6]; 100 ppm
  protectant activity against wheat powdery mildew in vivo: 100%
[6]; 400 ppm
  protectant activity against wheat powdery mildew in vivo: 100%
[6]; [9]
  pest or weed control at 1.6 µg/mL: 20%
[7]; 100 ppm
  protectant activity against cucumber downy mildew in vivo: 100%
[7]; 400 ppm
  protectant activity against cucumber downy mildew in vivo: 100%
[7]; Cucumis sativus, 168 h
  pest or weed control at 50 ppm: 100%

Source: US9770026B2, “Substituted pyrimidine compound and uses thereof” (Shenyang Sinochem Agrochemicals R&D Co., Ltd., priority 2012, dated 2017)
